Source: US10836706B2, “Bacterial efflux pump inhibitors” (RUTGERS, THE STATE UNIVERSITY OF NEW JERSEY, priority 2016, dated 2020)

Columns and labels:
[1] = tested on: Pseudomonas aeruginosa ATCC 27853; assay: Test A: MIC-based assay for potentiation of antibiotics that are known efflux pump substrates; type: cell-based; conditions: antibiotic MIC (e.g., clarithromycin and levofloxacin) in presence vs absence of the EPI compound; EPI at 1.6 to 12.5 g/mL in CAMH broth, 24 hours at 37° C.
Description: (§1) The ability of a compound disclosed herein to inhibit a bacterial efflux pump can be determined using a method like Test A or Test B as described in Example 20 and as shown in Table 1. Test A. Minimum Inhibitory Concentration (MIC)-Based Assay for Potentiation of Antibiotics that are Known Efflux Pump Substrates: MIC-based assays were used to evaluate the impact of potential efflux pump inhibiting (EPI) compounds on the MICs of antibiotics (e.g., clarithromycin and levofloxacin) known to be substrates for Gram-negative bacterial efflux pumps. The assays were conducted in accordance with Clinical and Laboratory Standards Institute (CLSI) guidelines for broth microdilution, with the modification that assays were conducted in the presence and absence of the test EPI compounds. […] Log-phase Gram-negative bacteria were added to 96-well microtiter plates (at 5×10^5 colony forming units (CFU) per mL) containing two-fold serial dilutions of antibiotic in CAMH broth either in the absence or presence of the test EPI compounds. In all assays, each serial dilution of antibiotic was present in duplicate. The final volume in each well was 0.1 mL, and the microtiter plates were incubated aerobically for 24 hours at 37° C. […] The following Gram-negative bacterial strains were included in these assays: Pseudomonas aeruginosa ATCC 27853.

[2] = tested on: Escherichia coli ATCC 25922; assay: as above; type: cell-based; conditions: antibiotic MIC (e.g., clarithromycin and levofloxacin) in presence vs absence of the EPI compound; EPI at 1.6 to 12.5 μg/mL in CAMH broth, 24 hours at 37° C.
Description: as §1, with “Escherichia coli” for “Pseudomonas aeruginosa”, “25922” for “27853.”

| SMILES | Enhanced Activity in P. aeruginosa [1] | Enhanced Activity in E. coli [2] |
| --- | --- | --- |
| Cl.Cl.Cl.NCCC[C@H](N)CNCc1cc(C(F)(F)F)cc(C(F)(F)F)c1 [Example 1, (S)—N^1-(3,5-bis(trifluoromethyl)benzyl)pentane-1,2,5-triaminium Chloride] | <2x | ≥2x |
| CC(C)(C)c1cc(CNC[C@@H](N)CCCN)cc(C(C)(C)C)c1.Cl.Cl.Cl [Example 2, (S)—N^1-(3,5-di-tert-butylbenzyl)pentane-1,2,5-triaminium Chloride] | <2x | ≥8x |
| Cl.Cl.Cl.NCCC[C@H](N)CNCCc1cc(C(F)(F)F)cc(C(F)(F)F)c1 [Example 3, (S)—N^1-(3,5-bis(trifluoromethyl)phenethyl)pentane-1,2,5-triaminium chloride] | ≥2x | ≥4x |
| CC(N)CC[C@H](N)CNCc1cc(C(F)(F)F)cc(C(F)(F)F)c1.Cl.Cl.Cl (stereo partly drawn) [Example 4, (2S)—N^1-(3,5-bis(trifluoromethyl)benzyl)hexane-1,2,5-triaminium Chloride] | <2x | <2x |
| CC(C)C(N)CC[C@H](N)CNCc1cc(-c2ccc(F)cc2)cc(-c2ccc(F)cc2)c1.Cl.Cl.Cl (stereo partly drawn) [Example 5, (2S)—N^1-((4,4″-difluoro-[1,1′:3′,1″-terphenyl]-5′-yl)methyl)-6-methylheptane-1,2,5-triaminium chloride] | ≥2x | 32 x |
| Cl.Cl.Cl.NCCC[C@H](N)CNCc1cc(-c2ccc(F)cc2)cc(-c2ccc(F)cc2)c1 [Example 6, (S)—N1-((4,4″-difluoro-[1,1′:3′,1″-terphenyl]-5′-yl)methyl)pentane-1,2,5-triaminium chloride] | ≥16x | ≥512x |
| Cl.Cl.Cl.NCCN(CCN)Cc1cc(-c2ccc(F)cc2)cc(-c2ccc(F)cc2)c1 [Example 7, N1-(2-ammonioethyl)-N1-((4,4″-difluoro-[1,1′:3′,1″-terphenyl]-5′-yl)methyl)ethane-1,2-diaminium chloride] | ≥16x | ≥512x |
| Cl.Cl.Cl.NCCN(CCN)Cc1cc(C(F)(F)F)cc(C(F)(F)F)c1 [Example 8, 2-ammonio-1-((2-ammonioethyl)(3,5-bis(trifluoromethyl)benzyl)-14-azanyl)ethan-1-ylium chloride] | <2x | <2x |
| CC(C)(CNC[C@@H](N)CCCN)c1cc(-c2ccc(F)cc2)cc(-c2ccc(F)cc2)c1.Cl.Cl.Cl [Example 9, (S)—N^1-(2-(4,4″-difluoro-[1,1′:3′,1″-terphenyl]-5′-yl)-2-methylpropyl)pentane-1,2,5-triaminium chloride] | ≥2x | ≥128 x |
| Cl.Cl.Cl.NCCC[C@H](N)CNCCc1cc(-c2ccc(F)cc2)cc(-c2ccc(F)cc2)c1 [Example 10, (S)—N1-(2-(4,4″-difluoro-[1,1′:3′,1″-terphenyl]-5′-yl)ethyl)pentane-1,2,5-triaminium chloride] | ≥64x | ≥1024x |
| Cl.Cl.NCCC[C@@H](N)COc1cc(-c2ccc(F)cc2)cc(-c2ccc(F)cc2)c1 [Example 11, (R)-5-((4,4″-difluoro-[1,1′:3′,1″-terphenyl]-5′-yl)oxy)pentane-1,4-diaminium chloride] | ≥16x | ≥1024 x |
| Cl.Cl.NC[C@H](N)CCc1cc(-c2ccc(F)cc2)cc(-c2ccc(F)cc2)c1 [Example 12, (R)-4-(4,4″-difluoro-[1,1′:3′,1″-terphenyl]-5′-yl)butane-1,2-diaminium chloride] | <2x | ≥32x |
| Cl.Cl.NCCC[C@H](N)COc1cc(-c2ccc(F)cc2)cc(-c2ccc(F)cc2)c1 [Example 13, (S)-5-((4,4″-difluoro-[1,1′:3′,1″-terphenyl]-5′-yl)oxy)pentane-1,4-diaminium chloride] | <2x | 256x |
| CC(C)C(N)CC[C@H](N)COc1cc(-c2ccc(F)cc2)cc(-c2ccc(F)cc2)c1.Cl.Cl (stereo partly drawn) [Example 14, (2S)-1-((4,4″-difluoro-[1,1′:3′,1″-terphenyl]-5′-yl)oxy)-6-methylheptane-2,5-diaminium] | <2x | <2x |
| NCCC[C@H](N)CNCc1cc(-c2ccccc2)cc(-c2ccccc2)c1 [Example 15, (S)—N1-([1,1′:3′,1″-terphenyl]-5′-ylmethyl)pentane-1,2,5-triaminium Chloride] | ≥16x | ≥128x |
| Cl.Cl.NCCC[C@H](N)COc1cc(-c2ccc(C(F)(F)F)cc2)cc(-c2ccc(C(F)(F)F)cc2)c1 [Example 16, (S)-5-((4,4″-bis(trifluoromethyl)-[1,1′:3′,1″-terphenyl]-5′-yl)oxy)pentane-1,4-diaminium chloride] | ≥2x | <2x |
| COc1ccc(-c2cc(OC[C@@H](N)CCCN)cc(-c3ccc(OC)cc3)c2)cc1.Cl.Cl [Example 17, (S)-5-((4,4″-dimethoxy-[1,1′:3′,1″-terphenyl]-5′-yl)oxy)pentane-1,4-diaminium chloride] | ≥2x | ≥1024x |
| Cl.Cl.NCCC[C@@H](N)COc1cc(-c2cccc(F)c2)cc(-c2cccc(F)c2)c1 [Example 18, (R)-5-((3,3″-difluoro-[1,1′:3′,1″-terphenyl]-5′-yl)oxy)pentane-1,4-diaminium chloride] | ≥1x | ≥512x |
| Cl.Cl.NCCC[C@@H](N)COc1cc(-c2ccc(F)c(F)c2)cc(-c2ccc(F)c(F)c2)c1 [Example 19, (R)-5-((3,3″,4,4″-tetrafluoro-[1,1′:3′,1″-terphenyl]-5′-yl)oxy)pentane-1,4-diaminium chloride] | ≥1x | ≥2x |
